# Non-standard residues stand in square brackets, D forms with d. No end group written: not given here. *: point of attachment. Biotin = O=C1N[C@H]2[C@H](CS[C@H]2CCCCC(=O)*)N1; Cit = NC(=O)NCCC[C@H](N)C(=O)O
# Columns and labels:
# IgA ACPAs = system: IgA ACPAs
# Method: (§1) This example describes an enzyme-linked immunosorbent assay (ELISA) for detecting (e.g., measuring) the presence (or absence) or level of anti-citrullinated protein antibodies (ACPAs) in an individual's sample. As a non-limiting example, a 96-well immunoassay plate was coated with avidin (e.g., neutravidin) and the plate was blocked with 5% bovine serum albumin in phosphate buffered saline. Biotinylated synthetic citrullinated peptides of the present invention were incubated with the avidin-coated plate. […] Unbound samples were washed out and RA-associated autoantibodies directed against the immobilized citrullinated peptide were detected with an enzyme-labeled (e.g., HRP-labeled) anti-human IgA, IgG, IgM, or IgA/G/M secondary antibody.
# IgM ACPAs = system: IgM ACPAs
# Method: as §1
# [1] = system: anti-citrullinated protein antibodies (ACPAs); conditions: FIG. 3 and FIG. 7; compared with the other peptides tested
# Method: as §1
# IgG ACPAs = assay: ACPA ELISA with anti-human IgG secondary antibody; assay type: binding; conditions: for IgG ACPA positive response (strong/moderate): Example 7, FIGS. 20-27
# Method: The synthetic citrullnated peptides set forth in Example 6, which were designed from synovial proteins, were synthesized and evaluated for their ability to diagnose and/or prognose RA. […] The peptides were then tested for IgG ACPA dose-response in samples of synovial fluid taken from both healthy patients and patients with RA.
# IgA/G/M ACPAs = system: IgA/G/M ACPAs
# Method: as §1
Substance,dose-response curve in ACPA ELISA (in words) [1],IgG ACPA positive response (strong/moderate) (IgG ACPAs),further results
Biotin-GGGATRSSAV[Cit]LRSSVPGVRLLQDS-NH2 [VMT2],strong dose-response curves,moderate,sensitivity for autoantibodies of the IgA class (in words) (IgA ACPAs): particularly high sensitivity; sensitivity for autoantibodies of the IgM class (in words) (IgM ACPAs): particularly high sensitivity
Biotin-[Cit]PAPPPISGGGY[Cit]A[Cit]-NH2 [FB3],stronger dose-response curve,,
Biotin-GGGAT[Cit]SSAV[Cit]L[Cit]SSVPGV[Cit]LLQDS-NH2 [VMT5],weak dose-response curve,,
Biotin-HSTK[Cit]GHAKSRPV[Cit]G-NH2 [FB4],stronger dose-response curve,,
Biotin-GGGP[Cit]VVE[Cit]HQSAGGGTK[Cit]GHAKSRPV[Cit]GIHT [[Arg^25]Cit-α32],,,"sensitivity for autoantibodies of the IgG class (in words) (IgG ACPAs): particularly high sensitivity; EC50 of the INOVA CCP IgG assay relative to EC50 of the peptide assay (IgG ACPAs; FIG. 4, IgG ACPAs): 143 fold"
"FBNT-7: synthetic citrullinated peptide derived from fibronectin, Table 8 (Biotin-GP[Cit]EDRVPHSPRED[Cit]VPHS[Cit]NSITLTNG-NH2; SMILES CC[C@H](C)[C@H](NC(=O)[C@H](CO)NC(=O)[C@H](CC(N)=O)NC(=O)[C@H](CCCNC(N)=O)NC(=O)[C@H](CO)NC(=O)[C@H](Cc1c[nH]cn1)NC(=O)[C@@H]1CCCN1C(=O)[C@@H](NC(=O)[C@H](CCCNC(N)=O)NC(=O)[C@H](CC(=O)O)NC(=O)[C@H](CCC(=O)O)NC(=O)[C@H](CCCNC(=N)N)NC(=O)[C@@H]1CCCN1C(=O)[C@H](CO)NC(=O)[C@H](Cc1c[nH]cn1)NC(=O)[C@@H]1CCCN1C(=O)[C@@H](NC(=O)[C@H](CCCNC(=N)N)NC(=O)[C@H](CC(=O)O)NC(=O)[C@H](CCC(=O)O)NC(=O)[C@H](CCCNC(N)=O)NC(=O)[C@@H]1CCCN1C(=O)CNC(=O)CCCC[C@@H]1SC[C@@H]2NC(=O)N[C@@H]21)C(C)C)C(C)C)C(=O)N[C@H](C(=O)N[C@@H](CC(C)C)C(=O)N[C@H](C(=O)N[C@@H](CC(N)=O)C(=O)NCC(N)=O)[C@@H](C)O)[C@@H](C)O)",,moderate,
"FIB-A6: 25-mer citrullinated peptide: fibrinogen alpha chain amino acids 451-465 linked to 509-517, Cys461 to Ser (Biotin-GSGSTTTTR[Cit]SSSKTVFRH[Cit]HPDEA-NH2; SMILES CC(C)[C@H](NC(=O)[C@@H](NC(=O)[C@H](CCCCN)NC(=O)[C@H](CO)NC(=O)[C@H](CO)NC(=O)[C@H](CO)NC(=O)[C@H](CCCNC(N)=O)NC(=O)[C@H](CCCNC(=N)N)NC(=O)[C@@H](NC(=O)[C@@H](NC(=O)[C@@H](NC(=O)[C@@H](NC(=O)[C@H](CO)NC(=O)CNC(=O)[C@H](CO)NC(=O)CNC(=O)CCCC[C@@H]1SC[C@@H]2NC(=O)N[C@@H]21)[C@@H](C)O)[C@@H](C)O)[C@@H](C)O)[C@@H](C)O)[C@@H](C)O)C(=O)N[C@@H](Cc1ccccc1)C(=O)N[C@@H](CCCNC(=N)N)C(=O)N[C@@H](Cc1c[nH]cn1)C(=O)N[C@@H](CCCNC(N)=O)C(=O)N[C@@H](Cc1c[nH]cn1)C(=O)N1CCC[C@H]1C(=O)N[C@@H](CC(=O)O)C(=O)N[C@@H](CCC(=O)O)C(=O)N[C@@H](C)C(N)=O)",,moderate,
"PL-SCRB: synthetic citrullinated peptide derived from PL scramblase, Table 8 (Biotin-TL[Cit]IIDNMGQEVITLE[Cit]PLRSITLERPL[Cit]SS-NH2; SMILES CC[C@H](C)[C@H](NC(=O)[C@H](CO)NC(=O)[C@H](CCCNC(=N)N)NC(=O)[C@H](CC(C)C)NC(=O)[C@@H]1CCCN1C(=O)[C@H](CCCNC(N)=O)NC(=O)[C@H](CCC(=O)O)NC(=O)[C@H](CC(C)C)NC(=O)[C@@H](NC(=O)[C@@H](NC(=O)[C@@H](NC(=O)[C@H](CCC(=O)O)NC(=O)[C@H](CCC(N)=O)NC(=O)CNC(=O)[C@H](CCSC)NC(=O)[C@H](CC(N)=O)NC(=O)[C@H](CC(=O)O)NC(=O)[C@@H](NC(=O)[C@@H](NC(=O)[C@H](CCCNC(N)=O)NC(=O)[C@H](CC(C)C)NC(=O)[C@@H](NC(=O)CCCC[C@@H]1SC[C@@H]2NC(=O)N[C@@H]21)[C@@H](C)O)[C@@H](C)CC)[C@@H](C)CC)C(C)C)[C@@H](C)CC)[C@@H](C)O)C(=O)N[C@H](C(=O)N[C@@H](CC(C)C)C(=O)N[C@@H](CCC(=O)O)C(=O)N[C@@H](CCCNC(=N)N)C(=O)N1CCC[C@H]1C(=O)N[C@@H](CC(C)C)C(=O)N[C@@H](CCCNC(N)=O)C(=O)N[C@@H](CO)C(=O)N[C@@H](CO)C(N)=O)[C@@H](C)O)",,moderate,
"H2B-3: synthetic citrullinated peptide derived from histone (H2B), Table 8 (Biotin-SRLAHYNK[Cit]STITSREIQTAV[Cit]LG-NH2; SMILES CC[C@H](C)[C@H](NC(=O)[C@H](CCC(=O)O)NC(=O)[C@H](CCCNC(=N)N)NC(=O)[C@H](CO)NC(=O)[C@@H](NC(=O)[C@@H](NC(=O)[C@@H](NC(=O)[C@H](CO)NC(=O)[C@H](CCCNC(N)=O)NC(=O)[C@H](CCCCN)NC(=O)[C@H](CC(N)=O)NC(=O)[C@H](Cc1ccc(O)cc1)NC(=O)[C@H](Cc1c[nH]cn1)NC(=O)[C@H](C)NC(=O)[C@H](CC(C)C)NC(=O)[C@H](CCCNC(=N)N)NC(=O)[C@H](CO)NC(=O)CCCC[C@@H]1SC[C@@H]2NC(=O)N[C@@H]21)[C@@H](C)O)[C@@H](C)CC)[C@@H](C)O)C(=O)N[C@@H](CCC(N)=O)C(=O)N[C@H](C(=O)N[C@@H](C)C(=O)N[C@H](C(=O)N[C@@H](CCCNC(N)=O)C(=O)N[C@@H](CC(C)C)C(=O)NCC(N)=O)C(C)C)[C@@H](C)O)",,strong,
Biotin-GGGATRSSAVRL[Cit]SSVPGVRLLQDS-NH2 [VMT3],strong dose-response curves,,sensitivity for autoantibodies of the IgA/G/M classes (in words) (IgA/G/M ACPAs): particularly high sensitivity; sensitivity for autoantibodies of the IgG class (in words) (IgG ACPAs): particularly high sensitivity
"FBNT-3: synthetic citrullinated peptide derived from fibronectin, Table 8 (Biotin-GVLV[Cit]WTPPRLVRWTPP[Cit]AQG-NH2; SMILES CC(C)C[C@H](NC(=O)[C@H](CCCNC(=N)N)NC(=O)[C@@H]1CCCN1C(=O)[C@@H]1CCCN1C(=O)[C@@H](NC(=O)[C@H](Cc1c[nH]c2ccccc12)NC(=O)[C@H](CCCNC(N)=O)NC(=O)[C@@H](NC(=O)[C@H](CC(C)C)NC(=O)[C@@H](NC(=O)CNC(=O)CCCC[C@@H]1SC[C@@H]2NC(=O)N[C@@H]21)C(C)C)C(C)C)[C@@H](C)O)C(=O)N[C@H](C(=O)N[C@@H](CCCNC(=N)N)C(=O)N[C@@H](Cc1c[nH]c2ccccc12)C(=O)N[C@H](C(=O)N1CCC[C@H]1C(=O)N1CCC[C@H]1C(=O)N[C@@H](CCCNC(N)=O)C(=O)N[C@@H](C)C(=O)N[C@@H](CCC(N)=O)C(=O)NCC(N)=O)[C@@H](C)O)C(C)C)",,moderate,
